The values below come from ChEMBL document CHEMBL3991601, “The target landscape of clinical kinase drugs” (Science, 2017).

Calls of active or inactive are those of the source. For most assays here, no stated cut-off is given here; in the data, actives have a measured Kd and inactives only a lower limit. A value given as a limit tells only on which side of the number the result lay.

Test [1] concerns the target T1, AarF domain-containing protein kinase 1 (Homo sapiens, UniProt Q86TW2).
T1 sequence (Q86TW2 whole entry): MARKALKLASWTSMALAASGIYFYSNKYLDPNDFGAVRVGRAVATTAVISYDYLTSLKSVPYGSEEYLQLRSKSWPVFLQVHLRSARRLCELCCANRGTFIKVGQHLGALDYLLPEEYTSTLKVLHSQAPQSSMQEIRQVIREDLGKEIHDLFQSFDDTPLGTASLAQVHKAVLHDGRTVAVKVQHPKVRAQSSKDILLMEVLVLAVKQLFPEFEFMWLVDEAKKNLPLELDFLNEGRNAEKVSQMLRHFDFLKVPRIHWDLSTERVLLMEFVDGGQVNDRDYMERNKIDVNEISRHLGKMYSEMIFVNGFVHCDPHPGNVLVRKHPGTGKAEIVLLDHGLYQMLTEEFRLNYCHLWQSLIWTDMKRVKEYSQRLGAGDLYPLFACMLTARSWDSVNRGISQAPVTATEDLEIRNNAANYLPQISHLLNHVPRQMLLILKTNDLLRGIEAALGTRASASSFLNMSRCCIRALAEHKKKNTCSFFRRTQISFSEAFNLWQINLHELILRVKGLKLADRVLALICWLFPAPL

Test [2] has as its target T2, Calcium/calmodulin-dependent protein kinase type IV (Homo sapiens, UniProt Q16566).
T2 sequence (Q16566 whole entry): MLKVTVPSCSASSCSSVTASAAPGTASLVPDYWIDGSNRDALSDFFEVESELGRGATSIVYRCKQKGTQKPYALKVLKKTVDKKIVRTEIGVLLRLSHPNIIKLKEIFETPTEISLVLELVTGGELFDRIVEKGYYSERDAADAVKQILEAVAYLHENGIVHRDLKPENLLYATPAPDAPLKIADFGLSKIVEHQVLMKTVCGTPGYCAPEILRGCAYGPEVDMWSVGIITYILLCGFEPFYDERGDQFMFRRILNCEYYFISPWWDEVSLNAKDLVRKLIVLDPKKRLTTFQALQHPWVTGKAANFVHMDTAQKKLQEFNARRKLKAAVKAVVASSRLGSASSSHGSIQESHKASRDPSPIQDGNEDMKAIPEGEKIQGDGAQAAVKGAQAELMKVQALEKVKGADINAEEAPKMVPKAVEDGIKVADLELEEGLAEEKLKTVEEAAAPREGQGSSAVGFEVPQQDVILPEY

A further test deals with T3, Ephrin type-B receptor 3 (Homo sapiens, UniProt P54753).
T3 sequence (P54753 whole entry): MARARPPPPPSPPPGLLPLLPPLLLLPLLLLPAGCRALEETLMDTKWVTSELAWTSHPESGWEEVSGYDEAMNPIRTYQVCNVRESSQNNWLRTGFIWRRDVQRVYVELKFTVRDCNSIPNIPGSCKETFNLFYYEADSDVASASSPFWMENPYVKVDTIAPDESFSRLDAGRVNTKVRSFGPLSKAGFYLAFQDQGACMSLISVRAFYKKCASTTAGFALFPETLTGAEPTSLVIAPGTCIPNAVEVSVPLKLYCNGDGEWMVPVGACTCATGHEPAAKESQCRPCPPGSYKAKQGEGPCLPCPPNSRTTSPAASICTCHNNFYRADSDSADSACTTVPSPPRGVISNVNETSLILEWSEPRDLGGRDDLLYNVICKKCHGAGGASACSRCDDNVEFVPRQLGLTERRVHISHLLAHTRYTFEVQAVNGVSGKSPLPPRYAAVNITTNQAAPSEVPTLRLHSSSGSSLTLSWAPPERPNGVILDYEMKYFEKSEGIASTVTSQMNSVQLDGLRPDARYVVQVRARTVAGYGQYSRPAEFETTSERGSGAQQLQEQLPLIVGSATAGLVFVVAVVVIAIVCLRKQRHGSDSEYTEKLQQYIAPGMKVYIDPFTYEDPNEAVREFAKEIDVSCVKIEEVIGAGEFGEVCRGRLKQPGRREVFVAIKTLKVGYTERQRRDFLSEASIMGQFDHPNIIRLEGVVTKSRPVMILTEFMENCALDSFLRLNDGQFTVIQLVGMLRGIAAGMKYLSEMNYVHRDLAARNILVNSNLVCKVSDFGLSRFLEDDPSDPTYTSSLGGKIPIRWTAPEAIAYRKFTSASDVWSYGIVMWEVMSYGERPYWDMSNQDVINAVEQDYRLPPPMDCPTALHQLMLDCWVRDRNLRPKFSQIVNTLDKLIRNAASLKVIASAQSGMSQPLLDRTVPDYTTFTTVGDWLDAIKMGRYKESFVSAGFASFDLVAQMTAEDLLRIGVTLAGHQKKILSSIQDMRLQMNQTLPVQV

For test [3], the target named is Tyrosine-protein kinase Lck (Homo sapiens, UniProt P06239).
Test [4] concerns the target Maternal embryonic leucine zipper kinase (Homo sapiens, UniProt Q14680).
Test [5] deals with T4, Phosphatidylinositol 5-phosphate 4-kinase type-2 gamma (Homo sapiens, UniProt Q8TBX8).
T4 sequence (Q8TBX8 whole entry): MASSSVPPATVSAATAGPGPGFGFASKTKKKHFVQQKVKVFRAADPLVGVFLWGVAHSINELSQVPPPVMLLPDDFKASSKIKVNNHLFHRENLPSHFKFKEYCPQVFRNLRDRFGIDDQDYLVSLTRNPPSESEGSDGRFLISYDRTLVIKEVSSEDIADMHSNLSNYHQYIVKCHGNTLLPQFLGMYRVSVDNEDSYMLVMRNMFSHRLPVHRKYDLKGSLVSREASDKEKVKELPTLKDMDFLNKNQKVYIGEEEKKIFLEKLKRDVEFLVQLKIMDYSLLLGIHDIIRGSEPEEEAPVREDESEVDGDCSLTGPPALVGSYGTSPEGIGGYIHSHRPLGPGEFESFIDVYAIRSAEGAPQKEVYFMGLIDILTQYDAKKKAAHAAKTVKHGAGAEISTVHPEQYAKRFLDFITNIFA

Test [6] has as its target cAMP-dependent protein kinase catalytic subunit alpha (Homo sapiens, UniProt P17612).

Maternal embryonic leucine zipper kinase, sequence (Q14680 whole entry): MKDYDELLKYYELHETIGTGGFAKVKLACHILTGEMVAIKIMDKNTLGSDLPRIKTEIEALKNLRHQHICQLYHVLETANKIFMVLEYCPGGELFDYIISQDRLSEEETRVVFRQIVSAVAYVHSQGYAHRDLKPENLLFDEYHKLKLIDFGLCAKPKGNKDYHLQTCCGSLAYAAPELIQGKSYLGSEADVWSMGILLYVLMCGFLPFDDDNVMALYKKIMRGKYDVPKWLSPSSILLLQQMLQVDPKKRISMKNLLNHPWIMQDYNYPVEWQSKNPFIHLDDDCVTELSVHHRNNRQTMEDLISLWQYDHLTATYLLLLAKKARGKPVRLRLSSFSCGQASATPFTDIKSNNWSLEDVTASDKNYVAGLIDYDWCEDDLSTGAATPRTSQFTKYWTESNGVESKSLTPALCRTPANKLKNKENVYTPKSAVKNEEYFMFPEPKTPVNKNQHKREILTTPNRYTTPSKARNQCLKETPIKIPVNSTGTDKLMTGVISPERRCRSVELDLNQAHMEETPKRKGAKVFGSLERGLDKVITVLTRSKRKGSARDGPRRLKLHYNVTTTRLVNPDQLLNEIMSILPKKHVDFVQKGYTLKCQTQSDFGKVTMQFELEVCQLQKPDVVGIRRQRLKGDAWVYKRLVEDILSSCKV
Tyrosine-protein kinase Lck, sequence (P06239 whole entry): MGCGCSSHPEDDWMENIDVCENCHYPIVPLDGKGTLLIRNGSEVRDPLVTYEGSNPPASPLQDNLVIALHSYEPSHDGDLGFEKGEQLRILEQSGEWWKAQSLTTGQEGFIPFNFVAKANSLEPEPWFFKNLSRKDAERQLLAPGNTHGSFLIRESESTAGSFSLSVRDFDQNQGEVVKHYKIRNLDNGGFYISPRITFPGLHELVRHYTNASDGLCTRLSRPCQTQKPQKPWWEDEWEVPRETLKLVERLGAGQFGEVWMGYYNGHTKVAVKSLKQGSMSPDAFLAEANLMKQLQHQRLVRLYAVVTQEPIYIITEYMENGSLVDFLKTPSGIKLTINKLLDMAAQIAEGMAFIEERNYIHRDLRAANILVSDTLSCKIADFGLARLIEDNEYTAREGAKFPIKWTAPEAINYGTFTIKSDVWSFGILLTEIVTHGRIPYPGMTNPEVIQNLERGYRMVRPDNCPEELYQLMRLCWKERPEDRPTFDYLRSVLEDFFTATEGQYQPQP

Consider `CCN1CCN(Cc2ccc(-c3cc4c(N[C@H](C)c5ccccc5)ncnc4[nH]3)cc2)CC1` [AEE-788], for which the Kd (in test [1]; in test [2]; at Ephrin type-B receptor 3; in test [3]; in test [4]; in test [5]) was > 30 µM (inactive) each time. Further, the Kd (commonly the concentration at which binding is half-saturated) in test [6] is > 30 µM (inactive).

`CN(C)C(=O)c1cc2cnc(Nc3ccc(N4CCNCC4)cn3)nc2n1C1CCCC1` [RIBOCICLIB]: the Kd (in test [1]; in test [2]; at Ephrin type-B receptor 3; in test [3]; in test [4]; in test [5]) was > 30 µM (inactive) each time. Besides, the Kd in test [6] was > 30 µM (inactive).

Turning to `COCCNCc1ccc(-c2cc3nccc(Oc4ccc(NC(=S)NC(=O)Cc5ccc(F)cc5)cc4F)c3s2)nc1` [GLESATINIB], the Kd is > 30 µM (inactive) in test [1]; > 30 µM (inactive) in test [2]; > 30 µM (inactive) on Ephrin type-B receptor 3; 0.092 µM (active) in test [3]; > 30 µM (inactive) in test [4]; > 30 µM (inactive) in test [5]. The Kd in test [6] was > 30 µM (inactive).

For the compound `Cn1cc(-c2ccc3nnc(C(F)(F)c4ccc5ncccc5c4)n3n2)cn1` [JNJ-38877605], the Kd in test [1] was > 30 µM (inactive); in test [2], > 30 µM (inactive); at Ephrin type-B receptor 3, > 30 µM (inactive); in test [3], > 30 µM (inactive); in test [4], > 30 µM (inactive); in test [5], 0.32 µM (active). For the same compound, the Kd in test [6] was > 30 µM (inactive).

Consider `CC[C@H](Nc1ncnc2[nH]cnc12)c1nc2cccc(F)c2c(=O)n1-c1ccccc1` [IDELALISIB], for which the Kd (in test [1]; in test [2]; on Ephrin type-B receptor 3; in test [3]; in test [4]; in test [5]) was > 30 µM (inactive) throughout. Further, the Kd in test [6] is > 30 µM (inactive).

As for `CN1CC[C@@H](c2c(O)cc(O)c3c(=O)cc(-c4ccccc4Cl)oc23)[C@@H]1CO`, the Kd (in test [1]; in test [2]; at Ephrin type-B receptor 3; in test [3]; in test [4]; in test [5]) was > 30 µM (inactive) in each case. For the same compound, the Kd in test [6] was > 30 µM (inactive).

For `CN1N=C(N)c2cn([C@@H]3O[C@H](COP(=O)(O)O)[C@@H](O)[C@H]3O)c3ncnc1c23` [TRICIRIBINE PHOSPHATE], the Kd (in test [1]; in test [2]; on Ephrin type-B receptor 3; in test [3]; in test [4]; in test [5]) was > 30 µM (inactive) each time. Also, in test [6], the Kd is > 30 µM (inactive).

Consider `O=C(c1ccc(F)c(F)c1Nc1ccc(I)cc1F)N1CC(O)([C@@H]2CCCCN2)C1` [COBIMETINIB], for which the Kd (in test [1]; in test [2]; on Ephrin type-B receptor 3; in test [3]; in test [4]; in test [5]) was > 30 µM (inactive) throughout. Further, in test [6], the Kd was > 30 µM (inactive).

For `Cc1cc(-c2cc(O)ccc2Cl)cc2nnc(Nc3ccc(OCCN4CCCC4)cc3)nc12`, the Kd was > 30 µM (inactive) in test [1]; > 30 µM (inactive) in test [2]; 0.002 µM (active) on Ephrin type-B receptor 3; 0.002 µM (active) in test [3]; > 30 µM (inactive) in test [4]; > 30 µM (inactive) in test [5]. In addition, the Kd in test [6] was > 30 µM (inactive).
